Several values for one entry are separate records, joined by “and”; a condition that tells them apart may be missing. Identical values can stand only once.
Columns and labels:
plasma proteins = tested on: plasma proteins; parameters: method as in Van der Vijgh et al., 1986; conditions: ref Van der Vijgh et al., 1986; cited from earlier work
[1] = parameters: method as in Schurig et al., 1984; conditions: ferret, preclinical; ref Schurig et al., 1984; cited from earlier work
[2] = cited from earlier work
[3] = parameters: method as in Lelieveld et al., 1984; conditions: dogs, preclinical; ref Lelieveld et al., 1984; cited from earlier work
[4] = human, in vivo
Text: Br. J. Cancer (1987), 56, 479-483 ? The Macmillan Press Ltd., 1987 Pharmacokinetics of ethylenediaminemalonatoplatinum(II) (JM-40) during phase I trial F. Elferink1, W.J.F. van der Vijgh1, W.W. ten Bokkel Huinink2, J.B. Vermorken', I. Klein1, B. Winograd', M.K.T. Knobf', G. Simonetti2, H.E. Gall', J.G. McVie2 & H.M. Pinedo' 1Department of Oncology, Free University Hospital, De Boelelaan 1117, 1081 HV Amsterdam; and 2Netherlands Cancer Institute, Antoni van Leeuwenhoek Hospital, Plesmanlaan 121, 1066 CX Amsterdam, The Netherlands. […] The drug was administered intravenously by short-term (10-60min) infusion. Doses ranged from 20 to 1,200 mgm-2. JM-40 was determined in plasma ultrafiltrate and urine by HPLC. Platinum (Pt) concentrations were determined in plasma, plasma ultrafiltrate, urine and red blood cells by atomic absorption spectrometry up to 5 days after administration of the drug. Ultrafilterable Pt could be determined up to 45 days after the infusion in one patient sampled over such a long period. […] During the first 6h 27+9% of the administered dose was excreted as JM-40. Cumulative platinum excretion in the urine amounted to 29+ 13%, 42+ 14% and 60+13% over the first 6h, 24h and 5 days, respectively. The uptake of platinum in red blood cells was limited, comprising only 0.24+0.12% of the administered dose. […] In particular the low emetogenic potential as determined in the ferret (Schurig et al., 1984) and the limited nephrotoxicity observed in dogs (Lelieveld et al., 1984) were reasons to conduct a phase I trial. […] Investigation of the pharmacokinetics during phase I clinical trials is important because it may help to design an optimal therapeutic regimen in phase II trials (Kovach, 1983). In the case of an analogue, pharmacokinetics can be compared with that of the parent compound. Furthermore, when preclinical information on animal pharmacokinetics is available human pharmacokinetics at low doses of the phase I trial may aid in escalating the dose as quickly and safely as possible (Collins et al., 1986, Van Hennik et al. 1987). Thus, clinical pharmacokinetics of JM-40 and platinum were investigated in plasma, plasma ultrafiltrate, urine and red blood cells. Figure 1 Structural platinum(II) (JM-40). formula of ethylenediaminemalonato- Patients and methods Patients and materials Pharmacokinetic studies were performed in 19 patients who received 28 cycles of JM-40 within a dose range of 20- 1,200mgm-2. The median age of the patients (6 females, 13 males) was 57 yrs (range 37-74 yrs). […] Renal function was decreased (creatinine clearance <60mlmin-1) at the start of only 3 treatment cycles. […] JM-40 was supplied by Johnson Matthey, Reading, Berkshire, UK. […]

[5] = after cis-platin, ref Vermorken et al., cited from earlier work

ethylenediaminemalonatoplatinum(II) [JM-40]
in vitro rate constant of plasma protein binding (k in vitro of free Pt) (plasma proteins): 0.002 min⁻¹ and 0.0020 min⁻¹ | emetogenic potential [1]: low | maximum tolerable dose ([2]; in vivo): 1,200 mg m-2 | nephrotoxicity [3]: limited | cumulative urinary excretion after 24 h, as Pt [4]: 42+14% | dose m-2 vs AUC relation [4]: linear pharmacokinetics | half-life of Pt in RBCs over day 1-5 [4]: 14 + 3 days | time of maximum Pt levels in RBCs after start of infusion [4]: 2 to 8 h

N.N.[Cl][Pt][Cl] [cis-platin, cis-diammine-dichloroplatinum(II)]
CUE 0-6h of free Pt ([5]; 1984b): 24+5 %D | CUE 0-24h of free Pt [5]; 1986: 28+4 %D

N.N.O=C([O-])C1(C(=O)[O-])CCC1.[Pt+2] [carboplatin, diammine( 1, l-cyclobutanedicarboxylato)platinum(II), reference compound]
dose limiting toxicity ([2]; ref Joss et al., 1984): myelotoxicity
